The record followed here is US12421207B2 (CMG Pharmaceutical Co., Ltd., priority 2022, dated 2025).

The target in one assay is c-MET (Homo sapiens, UniProt P08581). The experiment in a line: Enzymatic kinase assay (ADP-Glo), c-MET. The assay is classed as biochemical. The note with it: poly (Glu4, Tyr1) substrate, 60 min room temperature, ADP-GLO luminescence. The procedure: (§1) All the kinase reactions were performed in 5 μL using tyrosine kinase buffer with 0.2 μg/μL poly (Glu4, Tyr1) substrate, 10 µM ATP, serial dilution of the inhibitor, and incubated at room temperature for 60 min. After the indicated incubation times, 5 μL ADP-GLO™ reagent (Promega, Madison, WI) was added to the reactions and the plate was incubated at room temperature for 40 min. […] All 384-well assay plates were read using a GLOMAX™ Discover Microplate Luminometer from Promega (Madison, WI). To plot, analyze the data and calculate all kinase reaction biochemical values, both Microsoft Excel and Prism from GraphPad 7 Software (La Jolla, CA) were used.

A further assay concerns the target T1, AXL (Homo sapiens, UniProt P30530).
T1 sequence (P30530 26-894): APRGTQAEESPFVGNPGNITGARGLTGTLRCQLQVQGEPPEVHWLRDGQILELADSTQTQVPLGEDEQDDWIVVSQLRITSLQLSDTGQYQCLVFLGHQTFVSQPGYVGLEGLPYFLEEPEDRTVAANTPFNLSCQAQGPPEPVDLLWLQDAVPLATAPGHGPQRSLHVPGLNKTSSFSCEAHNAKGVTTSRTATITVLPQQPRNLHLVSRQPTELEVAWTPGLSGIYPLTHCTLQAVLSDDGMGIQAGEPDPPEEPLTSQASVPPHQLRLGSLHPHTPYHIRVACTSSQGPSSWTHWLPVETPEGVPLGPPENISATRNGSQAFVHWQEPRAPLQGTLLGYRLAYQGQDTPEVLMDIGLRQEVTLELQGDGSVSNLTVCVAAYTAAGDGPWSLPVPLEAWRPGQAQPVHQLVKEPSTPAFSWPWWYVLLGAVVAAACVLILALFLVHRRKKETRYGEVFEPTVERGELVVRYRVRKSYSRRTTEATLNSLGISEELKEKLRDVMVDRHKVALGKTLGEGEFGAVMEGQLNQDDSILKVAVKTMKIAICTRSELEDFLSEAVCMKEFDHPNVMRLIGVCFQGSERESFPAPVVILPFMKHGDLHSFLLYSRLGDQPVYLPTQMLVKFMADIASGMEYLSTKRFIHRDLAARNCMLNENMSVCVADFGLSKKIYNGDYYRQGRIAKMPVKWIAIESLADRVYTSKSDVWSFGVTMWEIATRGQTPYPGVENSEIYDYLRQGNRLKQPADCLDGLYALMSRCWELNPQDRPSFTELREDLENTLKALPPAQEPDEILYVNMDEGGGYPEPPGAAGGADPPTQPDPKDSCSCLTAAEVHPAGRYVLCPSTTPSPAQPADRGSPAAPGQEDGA
The experiment in a line: Enzymatic kinase assay (ADP-Glo), AXL. The assay is classed as biochemical. The note with it: poly (Glu4, Tyr1) substrate, 60 min room temperature, ADP-GLO luminescence. The procedure:
as §1
A general note: In ADP-Glo the light output rises with the ADP produced.

For another assay, the target named is T2, MER (Homo sapiens, UniProt Q12866).
T2 sequence (Q12866 21-999): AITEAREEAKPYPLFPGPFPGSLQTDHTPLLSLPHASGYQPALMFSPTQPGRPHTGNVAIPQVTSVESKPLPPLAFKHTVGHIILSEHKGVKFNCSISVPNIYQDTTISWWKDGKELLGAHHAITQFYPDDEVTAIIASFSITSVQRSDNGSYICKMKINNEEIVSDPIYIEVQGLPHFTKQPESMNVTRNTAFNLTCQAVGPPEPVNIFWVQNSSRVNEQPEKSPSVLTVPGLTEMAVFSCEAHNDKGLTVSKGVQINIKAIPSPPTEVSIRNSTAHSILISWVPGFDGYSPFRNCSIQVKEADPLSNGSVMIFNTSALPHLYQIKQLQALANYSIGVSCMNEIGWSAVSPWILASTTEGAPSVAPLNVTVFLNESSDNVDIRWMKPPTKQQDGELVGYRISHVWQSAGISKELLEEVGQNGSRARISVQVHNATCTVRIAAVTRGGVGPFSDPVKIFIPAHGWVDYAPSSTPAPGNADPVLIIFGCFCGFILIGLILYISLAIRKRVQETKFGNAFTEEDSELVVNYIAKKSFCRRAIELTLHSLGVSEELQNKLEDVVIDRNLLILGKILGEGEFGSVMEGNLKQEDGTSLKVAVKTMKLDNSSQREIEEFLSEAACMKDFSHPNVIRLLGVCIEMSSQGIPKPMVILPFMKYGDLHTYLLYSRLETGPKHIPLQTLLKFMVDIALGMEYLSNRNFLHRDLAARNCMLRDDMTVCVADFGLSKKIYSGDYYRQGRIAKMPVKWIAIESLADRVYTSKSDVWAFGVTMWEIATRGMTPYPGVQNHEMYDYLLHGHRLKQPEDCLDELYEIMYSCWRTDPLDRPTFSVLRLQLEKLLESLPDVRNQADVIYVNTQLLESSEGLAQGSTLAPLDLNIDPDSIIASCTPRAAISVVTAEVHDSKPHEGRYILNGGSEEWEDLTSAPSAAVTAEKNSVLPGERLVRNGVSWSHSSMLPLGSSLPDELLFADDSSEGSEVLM
The experiment in a line: Enzymatic kinase assay (ADP-Glo), MER. It counts as biochemical. The following applies: poly (Glu4, Tyr1) substrate, 60 min room temperature, ADP-GLO luminescence. The procedure:
All the kinase reactions were performed in 5 μL using tyrosine kinase buffer with 0.2 μg/μL poly (Glu4, Tyr1) substrate, 10 µM ATP, serial dilution of the inhibitor, and incubated at room temperature for 60 min. After the indicated incubation times, 5 μL ADP-GLO™ reagent (Promega, Madison, WI) was added to the reactions and the plate was incubated at room temperature for 40 min. Then, 10 μL of kinase detection reagent was added and after an incubation time of 40 min, luminescence was recorded and IC50 values were determined (Table 1). All 384-well assay plates were read using a GLOMAX™ Discover Microplate Luminometer from Promega (Madison, WI). To plot, analyze the data and calculate all kinase reaction biochemical values, both Microsoft Excel and Prism from GraphPad 7 Software (La Jolla, CA) were used.
All the kinase reactions were performed in 5 μL using tyrosine kinase buffer with 0.2 μg/μL poly (Glu4, Tyr1) substrate, 10 µM ATP, serial dilution of the inhibitor, and incubated at room temperature for 60 min. After the indicated incubation times, 5 μL ADP-GLO™ reagent (Promega, Madison, WI) was added to the reactions and the plate was incubated at room temperature for 40 min. […] All 384-well assay plates were read using a GLOMAX™ Discover Microplate Luminometer from Promega (Madison, WI). […]

Another assay relates to PC9/ER cells. The experiment in a line: Cell viability assay (CellTiter-Glo 2.0), erlotinib-resistant PC9/ER cells. The assay is classed as cell-based. From the text:
(§2) To explore c-MET and AXL mechanisms of EGFR TKI resistance, resistant cells of the EGFR TKI hypersensitive EGFR exon 19 mutant NSCLC cell line, HCC827 and PC9 were generated by exposing these cells to increasing concentrations of EGFR TKI for over 3 months.
(§3) Gefitinib-resistant cells were referred to as HCC827/GR. […] Osimertinib-resistant cells were referred to as HCC827/OR.
In general terms: Cellular ATP, detected with luciferase, serves as a proxy for viable cell number.

A further assay has as its system HCC827/ER cells. The experiment in a line: Cell viability assay (CellTiter-Glo 2.0), erlotinib-resistant HCC827/ER cells. The note with it: 72 h drug treatment, read-out: Relative cell viability, IC50 HCC827ER. It counts as cell-based, human.
Source text: as §2, §3

A further assay has as its system HCC827/GR cells. Description: Cell viability assay (CellTiter-Glo 2.0), gefitinib-resistant HCC827/GR cells. It counts as cell-based, human. The following applies: 72 h drug treatment, read-out: Relative cell viability, IC50 HCC827GR. The gist of the method:
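Gefitinib-resistant HCC827 cells, derived by over 3 months' escalating EGFR TKI exposure, seeded at 1,000 cells/well. Treated 72 h with a 10-point dose range from 1 nM to 10,000 nM. Viability read by CellTiter-Glo 2.0 luminescence.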

In a further assay the test system is HCC827/OR cells. Description: Cell viability assay (CellTiter-Glo 2.0), osimertinib-resistant HCC827/OR cells. It counts as cell-based, human.
Source text: as §2, §3

Another assay deals with HCC827 cells. The experiment in a line: cells. The note with it: Homo sapiens, HCC827, read-out: EGFR TKI IC50 in HCC827 cells. The procedure: (§4) The human cell line HCC827 was purchased from the American Type Culture Collection (Manassas, VA), and the PC9 cell line was obtained from RIKEN Cell Bank (Ibaraki, Japan). […] Gefitinib-resistant cells were referred to as HCC827/GR. […] Osimertinib-resistant cells were referred to as HCC827/OR.
(§5) Cell viability assays were carried out by plating 1,000 cells per well of HCC827 or PC9 resistant cells, respectively, into white transparent-bottom 384-well plates. The cells were treated with each TKI across a 10-dose range from 1 nM to 10,000 nM. After 72 h of drug treatment, cell viability was measured using the CellTiter-Glo 2.0 assay (Promega, Madison, WI).

A further assay concerns PC9 cells. Description: Cell viability assay, parental PC9 cells. It counts as cell-based. The note with it: Homo sapiens, PC-9; parental EGFR TKI-sensitive cells. The procedure:
as §4, §5

[1] abbreviates: Table 2, EGFR TKI resistant cells, combination with EGFR TKI.
Where [2] appears, read: Table 4, combinations of EGFR TKIs and inhibitor of Formula (I).

Like-named read-outs stand apart in the source and are kept apart here.

Sequence of c-MET (P08581 25-1390): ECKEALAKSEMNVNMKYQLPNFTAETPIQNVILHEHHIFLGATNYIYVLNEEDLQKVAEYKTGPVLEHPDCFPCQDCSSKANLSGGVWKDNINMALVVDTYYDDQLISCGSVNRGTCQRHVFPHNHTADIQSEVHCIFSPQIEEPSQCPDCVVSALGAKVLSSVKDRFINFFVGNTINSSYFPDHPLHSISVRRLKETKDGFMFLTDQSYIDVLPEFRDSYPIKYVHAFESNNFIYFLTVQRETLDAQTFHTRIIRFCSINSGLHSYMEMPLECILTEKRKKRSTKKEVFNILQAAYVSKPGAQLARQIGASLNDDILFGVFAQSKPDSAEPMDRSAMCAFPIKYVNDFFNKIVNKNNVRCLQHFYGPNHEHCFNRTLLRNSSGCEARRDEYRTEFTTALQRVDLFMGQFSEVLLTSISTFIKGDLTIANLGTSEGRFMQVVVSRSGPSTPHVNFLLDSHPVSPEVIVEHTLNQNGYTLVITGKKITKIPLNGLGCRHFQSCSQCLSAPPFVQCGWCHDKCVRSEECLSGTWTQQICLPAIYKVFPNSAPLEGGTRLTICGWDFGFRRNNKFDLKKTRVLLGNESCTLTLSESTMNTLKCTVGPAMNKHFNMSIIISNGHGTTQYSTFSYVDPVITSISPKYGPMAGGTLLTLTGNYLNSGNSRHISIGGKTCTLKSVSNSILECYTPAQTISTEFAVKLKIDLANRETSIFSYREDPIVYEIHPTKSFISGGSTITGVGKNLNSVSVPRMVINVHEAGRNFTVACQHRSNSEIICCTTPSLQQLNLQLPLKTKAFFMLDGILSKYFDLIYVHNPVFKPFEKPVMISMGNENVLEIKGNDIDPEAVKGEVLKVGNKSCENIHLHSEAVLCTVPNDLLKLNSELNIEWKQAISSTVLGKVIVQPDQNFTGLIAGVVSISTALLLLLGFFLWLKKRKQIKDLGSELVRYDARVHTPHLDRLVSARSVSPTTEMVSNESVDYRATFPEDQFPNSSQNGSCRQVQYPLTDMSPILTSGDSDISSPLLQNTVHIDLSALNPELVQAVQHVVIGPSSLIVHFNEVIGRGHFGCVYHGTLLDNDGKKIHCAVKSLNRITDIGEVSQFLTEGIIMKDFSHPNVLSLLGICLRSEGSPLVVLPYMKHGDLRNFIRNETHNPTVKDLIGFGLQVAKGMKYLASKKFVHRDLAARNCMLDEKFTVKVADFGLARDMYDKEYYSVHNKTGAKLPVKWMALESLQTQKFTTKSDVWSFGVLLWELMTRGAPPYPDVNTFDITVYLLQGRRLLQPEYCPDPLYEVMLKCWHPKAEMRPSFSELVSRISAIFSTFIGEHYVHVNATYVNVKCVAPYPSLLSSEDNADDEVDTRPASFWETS

In the case of `CC(C)c1c(Oc2ccc(NC(=O)c3cn(C(C)C)c(=O)n(-c4ccc(F)cc4)c3=O)cc2F)ccnc1N` [Example 8], the IC50 is under 10 nM against c-MET (Table 1); under 10 nM at AXL (Table 1); under 100 nM at MER (Table 1); under 10000 nM in the assay on PC9/ER cells (Table 2, 72 h drug treatment, EGFR TKI resistant cells, combination with EGFR TKI, read-out: Relative cell viability, IC50 PC9ER); under 100 nM in the assay on HCC827/ER cells (setting [1]); under 100 nM in the assay on HCC827/GR cells (setting [1]). The IC50 in the assay on HCC827/OR cells (Table 2, 72 h drug treatment, EGFR TKI resistant cells, combination with EGFR TKI, read-out: Relative cell viability, IC50 HCC827OR) was under 100 nM.

Turning to `C=CC(=O)Nc1cc(Nc2nccc(-c3cn(C)c4ccccc34)n2)c(OC)cc1N(C)CCN(C)C` [osimertinib, reference compound], in the assay with HCC827/OR cells (HCC827/OR versus parental HCC827), the “higher resistance than the parental cells, HCC827/OR” value is reported as 3,000 fold. For the same molecule, the IC50 with HCC827/OR cells (Homo sapiens, HCC827, read-out: EGFR TKI IC50 in HCC827/OR cells) was over 1000 nM; with HCC827 cells, under 0.3 nM.

With “N-(4-(2-amino-3-(3-piperidin-4-yl)prop-1-ynyl)pyridin-4-yloxy)-3-fluorophenyl)-3-cyclohexyl-1-ethyl-2,4-dioxo-1,2,3,4-tetrahydropyrimidine-5-carboxamide [Example 65]”, the IC50 at c-MET (Table 3) was under 100 nM; on AXL (Table 3), under 10 nM; on MER (Table 3), under 10 nM; with PC9/ER cells (Table 4, 72 h drug treatment, combinations of EGFR TKIs and inhibitor of Formula (I), read-out: Relative cell viability, IC50 PC9ER), under 1000 nM; in the assay with HCC827/ER cells (setting [2]) it was under 1000 nM; in the assay with HCC827/GR cells (setting [2]), under 1000 nM. In addition, the IC50 with HCC827/OR cells (Table 4, 72 h drug treatment, combinations of EGFR TKIs and inhibitor of Formula (I), read-out: Relative cell viability, IC50 HCC827OR) was under 10000 nM.

In the case of `C#Cc1cccc(Nc2ncnc3cc(OCCOC)c(OCCOC)cc23)c1` [erlotinib, reference compound], the IC50 in the assay with PC9/ER cells (Homo sapiens, PC-9/ER, read-out: EGFR TKI IC50 in PC9/ER) is over 10000 nM; with PC9 cells, under 10 nM. Also, the “higher resistance than the parental cells, PC9/ER” value in the assay with PC9/ER cells (PC9/ER versus parental PC9) was 1,000 fold.
